Laboratory results taken from patent publication US9670227B2, “Thienopyrimidine derivatives, a process for their preparation and pharmaceutical compositions containing them” (LES LABORATOIRES SERVIER, priority 2013, dated 2017).
Like-named read-outs stand apart in the source and are kept apart here.

How the values were obtained:
[1] = target: Mcl-1 protein (UniProtKB primary accession number: Q07820) (Homo sapiens, UniProt Q07820); assay: Inhibition of Mcl-1 by fluorescence polarisation, Method 1; assay type: binding; conditions: read-out: IC50 (M) Mcl-1 FP
In short: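 Binding was measured as fluorescence polarisation of a fluorescein-labelled ligand (1 nM) displaced from Mcl-1 (5 nM), both final. Compounds ran as 11-point series with final DMSO at 5%.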

[2] = system: H929 multiple myeloma tumour line; assay: In vitro cytotoxicity, Microculture Tetrazolium Assay; assay type: cell-based; conditions: Homo sapiens, NCI-H929, 48 h, H929 cells, 48 hours exposure, MTT; read-out: IC50 (μM) MTT H929
Description: The cytotoxicity studies were carried out on the H929 multiple myeloma tumour line.
The cells are distributed onto microplates and exposed to the test compounds for 48 hours.

[3] = fluorescence polarisation test, Method 2 values are underlined in the patent (underlining not visible here)
[4] = fluorescence polarisation, Method 1, or Method 2

Chain of Mcl-1 protein (Q07820 whole entry): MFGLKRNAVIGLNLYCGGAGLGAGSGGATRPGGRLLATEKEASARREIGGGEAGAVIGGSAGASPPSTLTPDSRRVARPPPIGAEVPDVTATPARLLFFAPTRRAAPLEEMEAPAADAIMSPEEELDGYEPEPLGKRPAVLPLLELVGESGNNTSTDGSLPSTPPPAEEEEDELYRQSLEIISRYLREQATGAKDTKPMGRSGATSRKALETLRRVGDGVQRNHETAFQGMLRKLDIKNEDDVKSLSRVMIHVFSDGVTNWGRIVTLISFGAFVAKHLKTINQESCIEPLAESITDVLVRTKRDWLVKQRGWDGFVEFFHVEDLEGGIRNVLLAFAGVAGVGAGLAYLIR

Question: Which IC50 [1, 3] does the source give for COc1ccc(-c2nccc(COc3ccccc3CC(Oc3ncnc4sc(-c5ccc(F)cc5)c(-c5ccc(OCCN6CCN(C)CC6)c(Cl)c5C)c34)C(=O)O)n2)cc1 [Example 107, (2R)-2-{[(5Sa)-5-{3-chloro-2-methyl-4-[2-(4-methylpiperazin-1-yl)ethoxy]phenyl}-6-(4-fluorophenyl)thieno[2,3-d]pyrimidin-4-yl]oxy}-3-(2-{[2-(4-methoxyphenyl)pyrimidin-4-yl]methoxy}phenyl)propanoic acid] here?
Answer: The IC50 was 5.3e-09 M.

Question: What about the IC50 [2] of the same compound?
Answer: The IC50 was 0.007 µM.

Question: Which results are given for COc1ccccc1CC(Oc1ncnc2sc(-c3cccc(OCCN4CCOCC4)c3)c(-c3ccc(OCCN4CCN(C)CC4)c(Cl)c3C)c12)C(=O)O [Example 588, (2R)-2-[((5Sa)-5-{3-chloro-2-methyl-4-[2-(4-methylpiperazin-1-yl)ethoxy]phenyl}-6-{3-[2-(morpholin-4-yl)ethoxy]phenyl}thieno[2,3-d]pyrimidin-4-yl)oxy]-3-(2-methoxyphenyl)propanoic acid]?
Answer: IC50 [1, 4]: 8e-09 M; IC50 [2]: 0.256 µM

Question: Which results are given for CCCCn1nccc1COc1ccccc1CC(Oc1ncnc2sc(-c3ccc(C#N)cc3)c(-c3ccc(OCCN4CCN(C)CC4)c(Cl)c3C)c12)C(=O)O [Example 600, (2R)-3-{2-[(1-butyl-1H-pyrazol-5-yl)methoxy]phenyl}-2-{[(5Sa)-5-{3-chloro-2-methyl-4-[2-(4-methylpiperazin-1-yl)ethoxy]phenyl}-6-(4-cyanophenyl)thieno[2,3-d]pyrimidin-4-yl]oxy}propanoic acid]?
Answer: IC50 [1, 4]: 4.1e-09 M; IC50 [2]: 0.031 µM

Question: What does the source list for CCCCn1nccc1COc1ccccc1CC(Oc1ncnc2sc(-c3ccc(N4CCOCC4)nc3)c(-c3ccc(OCCN4CCN(C)CC4)c(Cl)c3C)c12)C(=O)O [Example 619, (2R)-3-{2-[(1-butyl-1H-pyrazol-5-yl)methoxy]phenyl}-2-[((5Sa)-5-{3-chloro-2-methyl-4-[2-(4-methylpiperazin-1-yl)ethoxy]phenyl}-6-[6-(morpholin-4-yl)pyridin-3-yl]thieno[2,3-d]pyrimidin-4-yl)oxy]propanoic acid]?
Answer: IC50 [1, 4]: 7e-09 M; IC50 [2]: 0.336 µM

Question: Which IC50 [1, 3] does the source give for COc1ccnc(COc2ccccc2CC(Oc2ncnc3sc(-c4ccco4)c(-c4ccc(OCCN5CCN(C)CC5)c(Cl)c4C)c23)C(=O)O)c1 [Example 223, (2R)-2-{[(5Sa)-5-{3-chloro-2-methyl-4-[2-(4-methylpiperazin-1-yl)ethoxy]phenyl}-6-(furan-2-yl)thieno[2,3-d]pyrimidin-4-yl]oxy}-3-{2-[(4-methoxypyridin-2-yl)methoxy]phenyl}propanoic acid] here?
Answer: The IC50 was 1.4e-08 M.

Question: What about the IC50 [2] of the same compound?
Answer: Its IC50 is 0.346 µM.

Question: With CCc1sc2ncnc(OC(Cc3ccccc3)C(=O)O)c2c1-c1ccc(OCCCN(C)C)c(Cl)c1C [Example 400, (2R)-2-[((5Sa)-5-{3-chloro-4-[3-(dimethylamino)propoxy]-2-methylphenyl}-6-ethylthieno[2,3-d]pyrimidin-4-yl)oxy]-3-phenylpropanoic acid] as the compound, how does the IC50 [1, 4] read?
Answer: Its IC50 is 8.4e-08 M.

Question: What about the IC50 [2] of the same compound?
Answer: Its IC50 is 14.4 µM.

Question: Which results are given for Cc1c(-c2c(-c3ccc(F)cc3)sc3ncnc(OC(Cc4ccccc4OCc4ccnn4C4CCCC4)C(=O)O)c23)ccc(OCCN2CCN(C)CC2)c1Cl [Example 72, (2R)-2-{[(5Sa)-5-{3-chloro-2-methyl-4-[2-(4-methylpiperazin-1-yl)ethoxy]phenyl}-6-(4-fluorophenyl)thieno[2,3-d]pyrimidin-4-yl]oxy}-3-{2-[(1-cyclopentyl-1H-pyrazol-5-yl)methoxy]phenyl}propanoic acid]?
Answer: IC50 [1, 3]: 9.3e-09 M; IC50 [2]: 0.04 µM

Question: With Cc1c(-c2c(-c3ccc(F)cc3)sc3ncnc(OC(Cc4ccccc4OCc4ccnc(Oc5ccccc5)n4)C(=O)O)c23)ccc(OCCN2CCN(C)CC2)c1Cl [Example 56, (2R)-2-{[(5Sa)-5-{3-chloro-2-methyl-4-[2-(4-methylpiperazin-1-yl)ethoxy]phenyl}-6-(4-fluorophenyl)thieno[2,3-d]pyrimidin-4-yl]oxy}-3-{2-[(2-phenoxypyrimidin-4-yl)methoxy]phenyl}propanoic acid] as the compound, how does the IC50 [1, 3] read?
Answer: Its IC50 is 4.4e-09 M.

Question: And the IC50 [2]?
Answer: Its IC50 is 0.022 µM.

Question: What does the source list for Cc1c(-c2c(-c3ccc(F)cc3)sc3ncnc(OC(Cc4ccccc4OCc4ccnc(-c5ccccc5C(F)(F)F)n4)C(=O)O)c23)ccc(OCCN2CCN(C)CC2)c1Cl [Example 727, (2R)-2-{[(5Sa)-5-{3-chloro-2-methyl-4-[2-(4-methylpiperazin-1-yl)ethoxy]phenyl}-6-(4-fluorophenyl)thieno[2,3-d]pyrimidin-4-yl]oxy}-3-[2-({2-[2-(trifluoromethyl)phenyl]pyrimidin-4-yl}methoxy)phenyl]propanoic acid]?
Answer: IC50 [1, 4]: 1.32e-09 M; IC50 [2]: 0.013 µM

Question: Cc1c(-c2c(-c3ccco3)sc3ncnc(OC(Cc4ccccc4OCCOc4ccccc4)C(=O)O)c23)ccc(OCCN2CCN(C)CC2)c1Cl [Example 291, (2R)-2-{[(5Sa)-5-{3-chloro-2-methyl-4-[2-(4-methylpiperazin-1-yl)ethoxy]phenyl}-6-(furan-2-yl)thieno[2,3-d]pyrimidin-4-yl]oxy}-3-[2-(2-phenoxyethoxy)phenyl]propanoic acid] was tested. Which IC50 [1, 3] did it give?
Answer: The IC50 was 3.8e-08 M.

Question: What about the IC50 [2] of the same compound?
Answer: Its IC50 is 1.3 µM.

Question: Which results are given for Cc1c(-c2c(-c3ccn(C)n3)sc3ncnc(OC(Cc4ccccc4)C(=O)O)c23)ccc(OCCN2CCN(C)CC2)c1Cl [Example 506, (2R)-2-{[(5Sa)-5-{3-chloro-2-methyl-4-[2-(4-methylpiperazin-1-yl)ethoxy]phenyl}-6-(1-methyl-1H-pyrazol-3-yl)thieno[2,3-d]pyrimidin-4-yl]oxy}-3-phenylpropanoic acid]?
Answer: IC50 [1, 4]: 7.5e-08 M; IC50 [2]: 8.29 µM

Question: With CCc1sc2ncnc(OC(Cc3ccccc3)C(=O)O)c2c1-c1ccc(OCCN2CCNC2=O)c(Cl)c1C [Example 419, (2R)-2-[((5Sa)-5-{3-chloro-2-methyl-4-[2-(2-oxoimidazolidin-1-yl)ethoxy]phenyl}-6-ethylthieno[2,3-d]pyrimidin-4-yl)oxy]-3-phenylpropanoic acid] as the compound, how does the IC50 [1, 4] read?
Answer: The IC50 was 3.4e-08 M.

Question: And the IC50 [2]?
Answer: Its IC50 is 21.5 µM.

Question: With COc1ccccc1CC(Oc1ncnc2sc(-c3cc(F)cc(F)c3)c(-c3ccc(OCCN4CCN(C)CC4)c(Cl)c3C)c12)C(=O)O [Example 527, (2R)-2-{[(5Sa)-5-{3-chloro-2-methyl-4-[2-(4-methylpiperazin-1-yl)ethoxy]phenyl}-6-(3,5-difluorophenyl)thieno[2,3-d]pyrimidin-4-yl]oxy}-3-(2-methoxyphenyl)propanoic acid] as the compound, how does the IC50 [1, 4] read?
Answer: The IC50 was 7.1e-08 M.

Question: And the IC50 [2]?
Answer: The IC50 was 0.272 µM.

Question: For CC#Cc1sc2ncnc(OC(Cc3ccccc3OC)C(=O)O)c2c1-c1ccc(OCCN2CCN(C)CC2)c(F)c1C [Example 687, (2R)-2-{[(5Sa)-5-{3-fluoro-2-methyl-4-[2-(4-methylpiperazin-1-yl)ethoxy]phenyl}-6-(prop-1-yn-1-yl)thieno[2,3-d]pyrimidin-4-yl]oxy}-3-(2-methoxyphenyl)propanoic acid], which IC50 [1, 4] is on record?
Answer: The IC50 was 2.9e-08 M.

Question: What about the IC50 [2] of the same compound?
Answer: The IC50 was 3.66 µM.

Question: Which results are given for Cc1c(-c2c(-c3ccco3)sc3ncnc(OC(Cc4ccccc4OCc4ccnn4C)C(=O)O)c23)ccc(OCCN2CCN(C)CC2)c1Cl [Example 260, (2R)-2-{[(5Sa)-5-{3-chloro-2-methyl-4-[2-(4-methylpiperazin-1-yl)ethoxy]phenyl}-6-(furan-2-yl)thieno[2,3-d]pyrimidin-4-yl]oxy}-3-{2-[(1-methyl-1H-pyrazol-5-yl)methoxy]phenyl}propanoic acid]?
Answer: IC50 [1, 3]: 6.7e-09 M; IC50 [2]: 0.033 µM

Question: Which IC50 [1, 3] does the source give for Cc1c(-c2c(-c3ccco3)sc3ncnc(OC(Cc4ccccc4OCc4ccnc(N(C)C)n4)C(=O)O)c23)ccc(OCCN2CCN(C)CC2)c1Cl [Example 251, (2R)-2-{[(5Sa)-5-{3-chloro-2-methyl-4-[2-(4-methylpiperazin-1-yl)ethoxy]phenyl}-6-(furan-2-yl)thieno[2,3-d]pyrimidin-4-yl]oxy}-3-(2-{[2-(dimethylamino)pyrimidin-4-yl]methoxy}phenyl)propanoic acid] here?
Answer: Its IC50 is 6.3e-09 M.

Question: And the IC50 [2]?
Answer: The IC50 was 0.035 µM.

Question: Which results are given for COc1ccccc1CC(Oc1ncnc2sc(-c3ccco3)c(-c3ccc(OCC4CCN(C)C4)c(Cl)c3C)c12)C(=O)O [Example 310, (2R)-2-{[(5Sa)-5-{3-chloro-2-methyl-4-[(1-methylpyrrolidin-3-yl)methoxy]phenyl}-6-(furan-2-yl)thieno[2,3-d]pyrimidin-4-yl]oxy}-3-(2-methoxyphenyl)propanoic acid]?
Answer: IC50 [1, 3]: 1.4e-08 M; IC50 [2]: 0.26 µM

Question: How did the IC50 [1, 3] turn out when Cc1c(-c2c(-c3ccco3)sc3ncnc(OC(Cc4ccccc4OCc4ccnc(Cl)n4)C(=O)O)c23)ccc(OCCN2CCN(C)CC2)c1Cl [Example 249, (2R)-2-{[(5Sa)-5-{3-chloro-2-methyl-4-[2-(4-methylpiperazin-1-yl)ethoxy]phenyl}-6-(furan-2-yl)thieno[2,3-d]pyrimidin-4-yl]oxy}-3-{2-[(2-chloropyrimidin-4-yl)methoxy]phenyl}propanoic acid] was run?
Answer: The IC50 was 4e-09 M.

Question: What about the IC50 [2] of the same compound?
Answer: Its IC50 is 0.023 µM.

Question: What does the source list for Cc1ncccc1-c1nccc(COc2ccccc2CC(Oc2ncnc3sc(-c4ccc(F)cc4)c(-c4ccc(OCCN5CCN(C)CC5)c(Cl)c4C)c23)C(=O)O)n1 [Example 116, (2R)-2-{[(5Sa)-5-{3-chloro-2-methyl-4-[2-(4-methylpiperazin-1-yl)ethoxy]phenyl}-6-(4-fluorophenyl)thieno[2,3-d]pyrimidin-4-yl]oxy}-3-(2-{[2-(2-methylpyridin-3-yl)pyrimidin-4-yl]methoxy}phenyl)propanoic acid]?
Answer: IC50 [1, 3]: 2.9e-09 M; IC50 [2]: 0.007 µM

Question: For Cc1c(-c2c(-c3ccco3)sc3ncnc(OC(Cc4ccccc4OCc4ncccc4Cl)C(=O)O)c23)ccc(OCCN2CCN(C)CC2)c1Cl [Example 285, (2R)-2-{[(5Sa)-5-{3-chloro-2-methyl-4-[2-(4-methylpiperazin-1-yl)ethoxy]phenyl}-6-(furan-2-yl)thieno[2,3-d]pyrimidin-4-yl]oxy}-3-{2-[(3-chloropyridin-2-yl)methoxy]phenyl}propanoic acid], which IC50 [1, 3] is on record?
Answer: The IC50 was 1.7e-08 M.

Question: What about the IC50 [2] of the same compound?
Answer: Its IC50 is 0.588 µM.
